Laboratory results published in publication PMC10892719 (Pharmaceutics, 2024).

Assays:
Aβ1-42 = molecular target: T1, Aβ1-42 (Homo sapiens, UniProt P05067); test: Inhibition of Aβ1-42 self-aggregation, thioflavin T fluorescence; type: biochemical; details: Cinhibitor = 20 µM, Aβ1-42 40 µM, 37 °C, 24 h, read-out: Aβ42 Self-Aggreg. Inhib
T1 construct: purchased Genecust, Boynes, France
Procedure: The Aβ peptide (Genecust, Boynes, France) was treated with 1,1,1,3,3,3-hexafluoropropan-2-ol (HFIP, Aldrich, Steinheim, Germany) and dissolved in a CH3CN/Na2CO3 (300 µM)/NaOH (250 µM) ([…], v/v/v) mixture in order to have a stable stock solution of Aβ1-42 with concentration 500 µM.
Solutions of the assayed compounds (0.5 mg/mL) were firstly prepared in 60% (v/v) DMSO/MeOH medium and then diluted in phosphate buffer (0.215 M, pH 8.0) to a concentration of 120 µM. The Aβ1-42 aggregation inhibition assays were performed according to a reported method based on the fluorescence emission of thioflavin T (ThT, Aldrich Steinheim, Germany). Therefore, Aβ1-42 (40 µM) was incubated at 37 °C for 24 h in phosphate buffer and in the presence or absence of each ligand (20 µM). Then, the samples were added to a 96-well plate with 180 µL of 5 µM ThT in 50 mM glycine-NaOH (pH 8.5) buffer. Blank samples were identically prepared for each concentration but in the absence of the peptide. The ThT fluorescence was measured at 445 nm (excitation) and 485 nm (emission). The percent of aggregation inhibition was calculated by the following equation:I% = 100 − (IFi/IF0 × 100), in which IFi and IF0 are the fluorescence intensities, in the presence and the absence of the tested compound, subtracted from the fluorescence intensities due to the respective blanks. The reported values were obtained as the mean ± SEM of two different experiments performed in duplicate.
The inhibitory capacity of the RIV-IND hybrids towards Aβ42 self-aggregation was evaluated in vitro by molecular fluorescence spectroscopy through the thioflavin T (ThT) method. In fact, since there is an increase in the absorbance and emission of ThT when it binds to amyloid fibrils, it is possible to determine the percent of Aβ42 self-aggregation (see Table 1). The assays were performed in the presence of 20 µM of inhibitor to overcome the solubility limitations of some compounds in the phosphate buffer aqueous medium.

[1] = DPPH free radical scavenging (antioxidant) assay; details: read-out: Antioxidant Activity EC50; DPPH method, mean of three independent experiments
Procedure: The radical scavenging activity (antioxidant capacity) of the herein-developed RIV-IND hybrids was determined by the DPPH method [33]. Working solutions of the compounds in 10% DMSO/MeOH (, HoneywellSeelze, Germany) medium were used to prepare 5 methanolic solutions (5 points, 3 replicates) containing DPPH (Sigma-Aldrich, Steinheim, Germany) and different concentrations of compound up to 3.5 mL total volume. […] The respective antioxidant activity (%AA) was calculated using the following equation: %AA=ADPPH−Aligand/ADPPH×100
The reported results were obtained as the mean values of three independent experiments.
The new RIV-IND compounds were also screened for their radical scavenging activity (EC50), according to the 2,2-diphenyl-1-picrylhydrazyl (DPPH) free radical method.

T1 sequence (P05067 672-713 limits assumed): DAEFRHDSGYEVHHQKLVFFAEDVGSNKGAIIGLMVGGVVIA

Row | Structure (SMILES) | inhibition at 20 µM (Aβ1-42) [%] | EC50 [1] [µM]
1 | CCN(C)C(=O)Oc1cccc(NC(=O)c2cc3cccc(O)c3[nH]2)c1 [Compound 5a3, 3-(7-Hydroxy-1H-indole-2-carboxamido)phenyl ethyl(methyl)carbamate] | 50.3 | 14.5 ± 0.5
2 | CCN(C)C(=O)Oc1cccc(CNC(=O)c2cc3ccccc3[nH]2)c1 [Compound 5b1, 3-((1H-indole-2-carboxamido)methyl)phenyl ethylmethylcarbamate] | 19.9 | > 2000
